PMC6268061, “Investigation of the Biological Properties of (Hetero)Aromatic Thiosemicarbazones” (Molecules, 2012)
In brackets after ≈: the same amount, converted by molar mass. Read-outs that look alike come from different tables or passages of the source.

Assays:
Candida krusei ATCC 6258 = assay: In vitro antifungal susceptibility, broth microdilution; type: cell-based; conditions: Pichia kudriavzevii, read-out: MIC (IC80) CK
Absidia corymbifera 272 = assay: as above; type: cell-based; conditions: read-out: MIC (IC50) AC
[1] = system: photosynthetic electron transport (PET) in spinach chloroplasts; assay: Inhibition of photosynthetic electron transport (PET) in spinach chloroplasts; type: biochemical, Spinacia oleracea L.; conditions: DCPIP photoreduction
Procedure, shortened: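 PET in spinach chloroplasts was followed spectrophotometrically as DCPIP photoreduction in pH 7.2 phosphate buffer with sucrose, MgCl2 and NaCl, at 30 mg/L chlorophyll, under halogen-lamp irradiation at 22 °C. Compounds were added in DMSO. IC50 is the molar concentration halving the rate relative to untreated control.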

Candida tropicalis 156 = assay: In vitro antifungal susceptibility, broth microdilution; type: cell-based; conditions: read-out: MIC (IC80) CT
[2] = system: Candida albicans ATCC 44859; assay: as above; type: cell-based; conditions: read-out: MIC (IC80) CA
[3] = system: HCT-116 human colon cancer cells (p53 wild type); assay: In vitro antiproliferative activity, MTS assay; type: cell-based; conditions: HCT-116, 72 h incubation, MTS, read-out: HCT-116 IC50
Method: The antiproliferative activity of all of the compounds was examined against the human colon cancer (HCT-116) cell line using an MTS assay. The HCT-116 p53 wild type cell line was chosen on the basis of our former experience and some results on the activity of quinoline-based thiosemicarbazones that was published recently. Namely, compounds 4a–l have been tested previously for their wide-ranging anticancer activity. The antiproliferative activity of the compounds evaluated was assessed using Doxorubicin as a reference compound. In general, quinoline-based thiosemicarbazones 4 seem to have a much better anticancer activity than halogenophenyl compounds 3. Thus, the quinoline nucleus can be defined as being crucial for antiproliferative activity. A more detailed analysis of the anticancer activity of quinoline-based thiosemicarbazone is available. […] Nevertheless, some more general conclusions can be drawn from the gathered data. […] The free amino group or substitution pattern with small substituents such as methyl or ethyl are favorable for activity. According to our former results the chelating ability of the compounds may be one of the prerequisites of the antiproliferative activity. In this study we have measured the UV-VIS spectra of the compounds in presence of various concentration of Fe^3+ cations to observe its chelating potency (supplementary material). […] However as 4j give also two points at 330 and 385 nm, iron chelating ability should be regarded only as one of the factor influencing the biological activity.
The human colon cancer cell line HCT116 with the wild type p53 gene (p53^+/+) were obtained from Maria Sklodowska-Curie Memorial Cancer Center in Gliwice, Poland. Briefly, the cells were seeded in 96-well plates (3 × 10^3 cells/well) in cellular proliferation assays 24 h before the addition of the chelators. The assay was performed following a 72 h incubation with varying concentrations of the agents. Each compound was tested in triplicate in a single experiment with each experiment being repeated 3 times. After 72 h incubation with the compounds being investigated, 20 µL of MTS solution was added to each well (100 µL) and incubated for 1 h at 37 °C. The optical densities of the samples were analyzed at 490 nm. Results were expressed as a percentage of the control. The inhibitory concentration (IC50) was defined as the compound concentration necessary to reduce the absorbance to 50% of the untreated control.

[4] = Lipophilicity determination using RP-HPLC (capacity factor, log k); type: physicochemical; conditions: C18, MeOH 55%/H2O 45%
Procedure, shortened: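 Isocratic RP-HPLC on a C18 column (5 μm, 4.6 × 250 mm), 55% MeOH/45% water at 0.9 mL/min, 30 °C, UV detection 210 nm. Dead time from KI; capacity factor k = (tR − tD)/tD, with log k taken as the lipophilicity index on log P scale.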

Candida glabrata 20/I = assay: In vitro antifungal susceptibility, broth microdilution; type: cell-based; conditions: Nakaseomyces glabratus, read-out: MIC (IC80) CG
[5] = system: Aspergillus fumigatus 231; assay: as above; type: cell-based; conditions: read-out: MIC (IC50) AF
[6] = system: Trichophyton mentagrophytes 445; assay: as above; type: cell-based; conditions: read-out: MIC (IC50) TM
[7] = Lichtheimia corymbifera, 272, 24 h
[8] = Lichtheimia corymbifera, 272, 48 h
[9] = Aspergillus fumigatus, 231, 24 h
[10] = Aspergillus fumigatus, 231, 48 h
[11] = Trichophyton mentagrophytes, 445, 72 h
[12] = Trichophyton mentagrophytes, 445, 120 h

SMILES | MIC (Candida krusei ATCC 6258; ATCC6258, 24 h) [µM] | MIC (Candida krusei ATCC 6258; ATCC6258, 48 h) [µM] | IC50 (Absidia corymbifera 272; [7]) [µM] | IC50 (Absidia corymbifera 272; [8]) [µM] | IC50 [1] [µM] | MIC (Candida tropicalis 156; Candida tropicalis, 156, 24 h) [µM] | MIC (Candida tropicalis 156; Candida tropicalis, 156, 48 h) [µM] | MIC ([2]; ATCC44859, 24 h) [µM] | MIC ([2]; ATCC44859, 48 h) [µM] | IC50 [3] [µM] | log k [4] | MIC (Candida glabrata 20/I; 24 h) [µM] | MIC (Candida glabrata 20/I; 48 h) [µM] | IC50 [5, 9] [µM] | IC50 [5, 10] [µM] | IC50 [6, 11] [µM] | IC50 [6, 12] [µM]
CN(C)C(=S)N/N=C/c1ccc(Cl)c(Cl)c1 [Compound 3h, (E)-2-(3,4-Dichlorobenzylidene)-N,N-dimethylhydrazinecarbothioamide] | 500 (≈ 138 µg/mL) | 500 (≈ 138 µg/mL) | > 500 | > 500 | 329 | 500 (≈ 138 µg/mL) | 500 (≈ 138 µg/mL) | 15.6 (≈ 4.31 µg/mL) | 31.2 (≈ 8.63 µg/mL) | 47 ± 1.3 | 0.7555 | 500 (≈ 138 µg/mL) | 500 (≈ 138 µg/mL) | > 500 | > 500 | 31.2 | 62.5
NC(=S)N/N=C/c1ccc(Br)cc1 [Compound 3k, (E)-2-(4-Bromobenzylidene)hydrazinecarbothioamide] | > 500 | > 500 | > 500 | > 500 | 586 | > 500 | > 500 | 500 (≈ 129 µg/mL) | 500 (≈ 129 µg/mL) | > 60 | 0.6580 | > 500 | > 500 | > 500 | > 500 | > 500 | > 500
CN(C)C(=S)N/N=C/c1ccc(Br)cc1 [Compound 3m, (E)-2-(4-bromobenzylidene)-N,N-dimethylhydrazinecarbothioamide] | > 500 | > 500 | > 500 | > 500 | 595 | > 500 | > 500 | 62.5 (≈ 17.9 µg/mL) | 250 (≈ 71.5 µg/mL) | 47.5 ± 2.4 | 0.6784 | > 500 | > 500 | > 500 | > 500 | 62.5 | 62.5
